Assays:
[1] = Blood clearance in rat; assay type: ADME, organism-based; settings: whole blood
[2] = Tmax in rat; assay type: ADME, organism-based; settings: in vivo
[3] = Ratio of drug level in brain to blood in rat; assay type: ADME, tissue-based; settings: read-out: BBR
[4] = biological target: Cytochrome P450 2C9 (Homo sapiens, UniProt P11712); assay: Inhibition of CYP2C9; assay type: ADME
[5] = biological target: T1, Cytochrome P450 3A4 (Homo sapiens, UniProt P08684); assay: Inhibition of CYP3A4 using 7-benzyloxyquinoline as substrate; assay type: ADME
T1 sequence (P08684 whole entry): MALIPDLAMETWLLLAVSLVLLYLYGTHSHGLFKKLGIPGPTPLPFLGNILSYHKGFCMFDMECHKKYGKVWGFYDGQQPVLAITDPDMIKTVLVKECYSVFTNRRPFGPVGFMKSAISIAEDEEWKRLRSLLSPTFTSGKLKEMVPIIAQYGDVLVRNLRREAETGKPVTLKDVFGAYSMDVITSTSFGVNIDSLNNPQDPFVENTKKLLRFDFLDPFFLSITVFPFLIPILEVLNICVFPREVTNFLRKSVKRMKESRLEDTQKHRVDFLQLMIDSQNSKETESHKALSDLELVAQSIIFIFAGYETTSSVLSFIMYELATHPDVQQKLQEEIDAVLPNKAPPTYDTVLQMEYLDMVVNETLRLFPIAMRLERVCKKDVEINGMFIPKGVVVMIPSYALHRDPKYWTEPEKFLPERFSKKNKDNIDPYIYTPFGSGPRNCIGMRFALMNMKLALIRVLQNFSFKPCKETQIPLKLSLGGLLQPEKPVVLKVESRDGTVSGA

[6] = biological target: T1, Cytochrome P450 3A4; assay: Inhibition of CYP3A4 using diethoxyfluorescein as substrate; assay type: ADME
[7] = biological target: Cytochrome P450 2C19 (Homo sapiens, UniProt P33261); assay: Inhibition of CYP2C19; assay type: ADME
Sequence of Cytochrome P450 2C19 (P33261 whole entry): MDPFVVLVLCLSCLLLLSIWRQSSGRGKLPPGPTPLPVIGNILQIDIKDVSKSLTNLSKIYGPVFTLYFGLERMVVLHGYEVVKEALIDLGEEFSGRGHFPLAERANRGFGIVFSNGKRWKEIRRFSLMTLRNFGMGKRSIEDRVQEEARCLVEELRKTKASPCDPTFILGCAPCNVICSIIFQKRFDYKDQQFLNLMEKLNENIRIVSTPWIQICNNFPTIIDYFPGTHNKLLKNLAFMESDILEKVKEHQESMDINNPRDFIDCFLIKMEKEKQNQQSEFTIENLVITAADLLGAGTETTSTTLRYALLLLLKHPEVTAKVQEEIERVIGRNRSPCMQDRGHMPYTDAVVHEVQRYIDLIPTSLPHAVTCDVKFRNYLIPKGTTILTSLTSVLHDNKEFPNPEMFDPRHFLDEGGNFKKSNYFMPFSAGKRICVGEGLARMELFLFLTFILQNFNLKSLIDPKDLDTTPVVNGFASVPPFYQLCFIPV

[8] = biological target: T2, Cytochrome P450 1A2 (Homo sapiens, UniProt P05177); assay: Inhibition of CYP1A2; assay type: ADME
T2 sequence (P05177 whole entry): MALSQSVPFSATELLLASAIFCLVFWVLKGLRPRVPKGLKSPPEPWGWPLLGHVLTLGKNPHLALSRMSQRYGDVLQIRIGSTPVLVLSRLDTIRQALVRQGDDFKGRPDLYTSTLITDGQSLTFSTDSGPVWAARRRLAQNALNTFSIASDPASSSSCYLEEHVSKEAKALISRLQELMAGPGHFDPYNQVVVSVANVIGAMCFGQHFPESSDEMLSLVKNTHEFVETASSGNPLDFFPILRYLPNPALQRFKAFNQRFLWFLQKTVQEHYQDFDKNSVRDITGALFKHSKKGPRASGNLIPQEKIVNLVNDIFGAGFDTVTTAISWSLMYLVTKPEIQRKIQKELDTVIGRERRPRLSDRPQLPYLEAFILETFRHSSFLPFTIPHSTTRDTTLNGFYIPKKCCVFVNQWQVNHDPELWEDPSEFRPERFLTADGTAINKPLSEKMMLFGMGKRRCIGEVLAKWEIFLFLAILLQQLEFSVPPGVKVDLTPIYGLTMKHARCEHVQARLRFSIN

[9] = biological target: Cytochrome P450 2D6 (Homo sapiens, UniProt P10635); assay: Inhibition of CYP2D6; assay type: ADME
Sequence of Cytochrome P450 2D6 (P10635 whole entry): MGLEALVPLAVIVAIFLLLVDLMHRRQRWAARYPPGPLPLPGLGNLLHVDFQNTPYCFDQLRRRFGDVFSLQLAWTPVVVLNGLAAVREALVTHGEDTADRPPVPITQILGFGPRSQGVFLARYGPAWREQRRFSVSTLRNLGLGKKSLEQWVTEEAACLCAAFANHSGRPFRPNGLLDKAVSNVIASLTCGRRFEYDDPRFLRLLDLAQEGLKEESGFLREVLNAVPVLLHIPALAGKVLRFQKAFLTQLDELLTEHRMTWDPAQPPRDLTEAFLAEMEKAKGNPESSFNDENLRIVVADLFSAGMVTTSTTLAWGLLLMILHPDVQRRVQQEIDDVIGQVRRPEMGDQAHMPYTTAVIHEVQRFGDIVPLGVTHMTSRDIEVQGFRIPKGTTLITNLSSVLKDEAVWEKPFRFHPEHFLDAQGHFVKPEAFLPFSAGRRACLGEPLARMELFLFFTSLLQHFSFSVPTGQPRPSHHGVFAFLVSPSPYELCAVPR

[10] = Volume of distribution in rat; assay type: ADME, organism-based; settings: in vivo
[11] = biological target: D(2) dopamine receptor (Homo sapiens, UniProt P14416); assay: Antagonist activity at dopamine D2 receptor assessed as inhibition of dopamine-induced [35S]GTPgammaS binding […]; assay type: functional
Sequence of D(2) dopamine receptor (P14416 whole entry): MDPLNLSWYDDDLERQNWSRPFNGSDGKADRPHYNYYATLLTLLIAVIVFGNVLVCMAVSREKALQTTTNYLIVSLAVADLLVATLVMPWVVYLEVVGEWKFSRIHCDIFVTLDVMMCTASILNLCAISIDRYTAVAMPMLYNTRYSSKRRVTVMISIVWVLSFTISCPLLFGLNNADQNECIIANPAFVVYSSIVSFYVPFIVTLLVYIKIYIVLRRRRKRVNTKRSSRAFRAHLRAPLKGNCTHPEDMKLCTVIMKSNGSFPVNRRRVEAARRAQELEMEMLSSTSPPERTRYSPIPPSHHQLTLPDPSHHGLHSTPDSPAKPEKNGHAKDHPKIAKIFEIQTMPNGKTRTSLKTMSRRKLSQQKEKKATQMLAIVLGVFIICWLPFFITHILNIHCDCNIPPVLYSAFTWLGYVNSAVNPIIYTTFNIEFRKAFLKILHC

[12] = Bioavailability in rat; assay type: ADME, organism-based; settings: in vivo
[13] = Half life in rat; assay type: ADME, organism-based; settings: in vivo
[14] = biological target: D(3) dopamine receptor (Homo sapiens, UniProt P35462); assay: Antagonist activity at dopamine D3 receptor assessed as inhibition of dopamine-induced [35S]GTPgammaS binding […]; assay type: functional
Sequence of D(3) dopamine receptor (P35462 whole entry): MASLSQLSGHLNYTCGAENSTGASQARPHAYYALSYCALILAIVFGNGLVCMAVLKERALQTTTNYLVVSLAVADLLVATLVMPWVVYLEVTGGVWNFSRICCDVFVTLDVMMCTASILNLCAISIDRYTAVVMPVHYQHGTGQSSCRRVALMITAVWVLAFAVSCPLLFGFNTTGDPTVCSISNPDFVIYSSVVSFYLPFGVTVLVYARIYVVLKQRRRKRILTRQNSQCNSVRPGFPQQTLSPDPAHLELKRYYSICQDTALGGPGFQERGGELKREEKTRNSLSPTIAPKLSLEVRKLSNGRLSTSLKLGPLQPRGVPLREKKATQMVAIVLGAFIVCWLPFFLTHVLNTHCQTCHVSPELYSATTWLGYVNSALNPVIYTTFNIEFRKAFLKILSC

[15] = biological target: Voltage-gated inwardly rectifying potassium channel KCNH2 (Homo sapiens, UniProt Q12809)
Sequence of Voltage-gated inwardly rectifying potassium channel KCNH2 (Q12809 whole entry): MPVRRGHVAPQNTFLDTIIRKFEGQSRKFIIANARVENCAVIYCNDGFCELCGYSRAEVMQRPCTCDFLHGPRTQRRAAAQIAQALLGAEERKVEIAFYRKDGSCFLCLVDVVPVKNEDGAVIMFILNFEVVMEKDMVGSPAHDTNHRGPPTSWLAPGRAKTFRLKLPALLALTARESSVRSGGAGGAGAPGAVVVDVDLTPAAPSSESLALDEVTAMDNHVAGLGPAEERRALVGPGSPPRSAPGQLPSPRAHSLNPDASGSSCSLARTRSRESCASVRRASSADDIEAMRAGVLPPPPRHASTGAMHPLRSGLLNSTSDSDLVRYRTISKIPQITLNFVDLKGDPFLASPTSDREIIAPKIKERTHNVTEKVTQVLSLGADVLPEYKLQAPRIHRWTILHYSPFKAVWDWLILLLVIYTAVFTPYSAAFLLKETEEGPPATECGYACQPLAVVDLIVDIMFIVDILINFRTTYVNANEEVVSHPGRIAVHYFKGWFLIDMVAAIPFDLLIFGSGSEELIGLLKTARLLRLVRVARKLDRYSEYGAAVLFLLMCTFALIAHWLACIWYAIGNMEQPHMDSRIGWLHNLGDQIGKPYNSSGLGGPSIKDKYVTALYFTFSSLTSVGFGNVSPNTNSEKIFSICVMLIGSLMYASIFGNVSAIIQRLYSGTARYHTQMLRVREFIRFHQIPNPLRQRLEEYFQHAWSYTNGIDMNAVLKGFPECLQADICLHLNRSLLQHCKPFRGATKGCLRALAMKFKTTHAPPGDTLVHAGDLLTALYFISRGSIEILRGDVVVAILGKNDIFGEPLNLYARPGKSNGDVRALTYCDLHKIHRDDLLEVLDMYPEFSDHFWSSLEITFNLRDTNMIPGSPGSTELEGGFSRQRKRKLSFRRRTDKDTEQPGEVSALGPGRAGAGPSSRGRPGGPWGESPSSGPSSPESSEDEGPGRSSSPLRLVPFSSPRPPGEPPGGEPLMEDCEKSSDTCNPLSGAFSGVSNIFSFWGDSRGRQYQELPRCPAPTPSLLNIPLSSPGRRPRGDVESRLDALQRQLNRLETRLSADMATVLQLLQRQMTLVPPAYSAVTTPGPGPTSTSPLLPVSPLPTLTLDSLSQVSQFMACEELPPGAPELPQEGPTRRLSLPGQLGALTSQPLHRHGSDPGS

Sequence of Cytochrome P450 2C9 (P11712 whole entry): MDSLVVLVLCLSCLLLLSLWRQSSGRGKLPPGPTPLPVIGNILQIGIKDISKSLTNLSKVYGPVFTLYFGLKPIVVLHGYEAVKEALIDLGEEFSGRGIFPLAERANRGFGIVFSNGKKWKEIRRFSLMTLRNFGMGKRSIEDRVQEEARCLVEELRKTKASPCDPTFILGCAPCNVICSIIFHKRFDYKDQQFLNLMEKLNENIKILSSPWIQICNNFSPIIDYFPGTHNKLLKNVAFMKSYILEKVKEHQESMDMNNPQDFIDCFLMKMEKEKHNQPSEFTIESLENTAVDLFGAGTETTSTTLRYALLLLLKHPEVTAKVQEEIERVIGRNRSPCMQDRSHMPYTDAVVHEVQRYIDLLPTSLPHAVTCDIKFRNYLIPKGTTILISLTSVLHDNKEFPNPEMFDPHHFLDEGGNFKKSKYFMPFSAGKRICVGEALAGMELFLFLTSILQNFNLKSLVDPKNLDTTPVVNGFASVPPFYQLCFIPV

| Compound | clearance [1] [L/h/kg] | Tmax [2] [h] | Kp [3] | IC50 [4] [µM] | IC50 [5] [µM] | IC50 [6] [µM] | IC50 [7] [µM] | IC50 [8] [µM] | IC50 [9] [µM] | Vd [10] [L/kg] | Ki [11] [µM] | bioavailability [12] [%] | half-life [13] [h] | Ki [14] [µM] | IC50 [15] [µM] |
| --- | --- | --- | --- | --- | --- | --- | --- | --- | --- | --- | --- | --- | --- | --- | --- |
| Cc1ncoc1-c1nnc(SCCCN2CC3CC3(c3ccc(C(F)(F)F)cc3)C2)n1C (racemic) | 0.84 | 1.5 | 2.3 |  |  |  |  |  |  |  |  |  |  |  |  |
| Cc1ncoc1-c1nnc(SCCCN2CC3CC3(c3ccc(S(F)(F)(F)(F)F)cc3)C2)n1C (racemic) | 0.48 | 2.7 | 2.2 | 9 | > 10 | > 10 | > 10 | > 10 | 8 | 2.8 | 0.158 | 87 | 4.4 |  |  |
| Cc1ncoc1-c1nnc(SCCCN2CC3CC3(c3ccc(S(F)(F)(F)(F)F)cc3)C2)n1C (single isomer, unassigned) |  |  |  | 9 | > 10 | > 10 | > 10 | 7 | > 10 |  | 0.251 |  |  | 0.0126 |  |
| Cc1ncoc1-c1nnc(SCCCN2CC3CC3(c3ccc(S(F)(F)(F)(F)F)cc3)C2)n1C (stereo in doubt; 8) |  |  |  | 9 | > 10 | > 10 | > 10 | 8 | > 10 |  | 0.158 |  |  | 0.001 |  |

Further lines, with some results ahead:

| clearance [1] [L/h/kg] | Tmax [2] [h] | Kp [3] | IC50 [4] [µM] | IC50 [5] [µM] | IC50 [6] [µM] | IC50 [7] [µM] | IC50 [8] [µM] | IC50 [9] [µM] | Vd [10] [L/kg] | Ki [11] [µM] | bioavailability [12] [%] | half-life [13] [h] | Ki [14] [µM] | Compound | IC50 [15] [µM] |
| --- | --- | --- | --- | --- | --- | --- | --- | --- | --- | --- | --- | --- | --- | --- | --- |
|  |  |  | > 10 | > 10 | > 10 | 5 | > 10 | > 10 |  |  |  |  |  | Cc1ncoc1-c1nnc(SCCCN2CC3CC3(c3cccc(C(F)(F)F)c3)C2)n1C (racemic) |  |
|  |  |  | 4 | > 10 | > 10 | 9 | > 10 | 3 |  | 0.126 |  |  | 0.00126 | Cc1ncoc1-c1nnc(SCCCN2CC3CC3(c3cccc(S(F)(F)(F)(F)F)c3)C2)n1C (racemic) | 1 |
|  |  |  | 2 | > 10 | > 10 | 4 | > 10 | 5 |  | > 3.16 |  |  | 0.0158 | Cc1ncoc1-c1nnc(SCCCN2CC3CC3(c3cccc(S(F)(F)(F)(F)F)c3)C2)n1C (single isomer, unassigned; 11) | 2 |
|  |  |  | 2 | > 10 | > 10 | 3 | > 10 | 2 |  | 0.0316 |  |  | 0.000631 | Cc1ncoc1-c1nnc(SCCCN2CC3CC3(c3cccc(S(F)(F)(F)(F)F)c3)C2)n1C (single isomer, unassigned; 12) | 1.26 |
